Measurements reported in PMC9718554, “Discovery of a fragment hit compound targeting D-Ala:D-Ala ligase of bacterial peptidoglycan biosynthesis” (Journal of Enzyme Inhibition and Medicinal Chemistry, 2022).
Where two headings read alike, the source gives them in different places.

Target: T1, E. coli DdlB enzyme (D-alanine:D-alanine ligase) (Escherichia coli, UniProt P07862)
T1 construct: made in house; host or cells: E. coli
Test: biochemical
Details: read-out: DdlB RA; for remaining activity at 1800 µM: tested concentration 1.8 mM; for remaining activity at 3200 µM: tested concentration 3.2 mM; for remaining activity at 2300 µM: tested concentration 2.3 mM; for remaining activity at 2100 µM: tested concentration 2.1 mM; for remaining activity at 2200 µM: tested concentration 2.2 mM; for remaining activity at 2000 µM: tested concentration 2.0 mM; for remaining activity at 2900 µM: tested concentration 2.9 mM; for remaining activity at 1700 µM: tested concentration 1.7 mM; for remaining activity at 2400 µM: tested concentration 2.4 mM; for remaining activity at 3400 µM: tested concentration 3.4 mM
Procedure: The fragment library was assayed in a DdlB inhibition assay, where fragments were tested for their ability to inhibit the D-Ala-adding activity of DdlB ligase. The orthophosphate formed during the enzymatic reaction was measured spectrophotometrically using malachite green reagent.
A recombinant E. coli DdlB enzyme (D-alanine:D-alanine ligase) was expressed in E. coli[11]. […] The final DMSO concentration was 5%. […] All experiments were performed in duplicates. […] IC50 values were determined by measuring the residual activities in quadruplicate at seven different compound concentrations and calculated using in GraphPad Prism (GraphPad Software, San Diego, CA, USA).

[1] = residual activity of DdlB, fragment library screening

Compound: O=C(Nc1ccccc1C(=O)O)c1ccccc1Cl [Compound 0342-0148]
- remaining activity at 1800 µM (residual activity): 111%

Compound: NS(=O)(=O)c1ccccc1 [Compound 0402-0167]
- remaining activity at 3200 µM: 96%

Compound: CC(=O)Nc1ccc(S(N)(=O)=O)cc1 [Compound 0405-0094]
- remaining activity at 2300 µM: 87%

Compound: Nc1c(Cl)cc(S(N)(=O)=O)cc1Cl [Compound 0772-0030]
- remaining activity at 2100 µM: 93%

Compound: Cc1ccc([N+](=O)[O-])cc1S(=O)(=O)O [Compound 0804-0047]
- remaining activity at 2300 µM: 93%

Compound: CC(C)(C)NS(=O)(=O)c1ccccc1 [Compound 0896-4384]
- remaining activity at 2800 µM (tested concentration 2.8 mM): 95%

Compound: O=C(O)c1ccccc1NC(=O)C(F)(F)F [Compound 0931-0537]
- remaining activity at 2100 µM (residual activity): 104%

Compound: Nc1cccc2cccc(S(=O)(=O)O)c12 [Compound 1091-0114]
- remaining activity at 2200 µM: 81%

Compound: OB(O)c1ccc(OCc2ccccc2)c(F)c1 [Compound 1222-0119]
- remaining activity at 2000 µM: 98%

Compound: COc1ccc(B(O)O)cc1F [Compound 1222-0120]
- remaining activity at 2900 µM: 93%

Compound: OB(O)c1ccc(F)c(F)c1 [Compound 1222-0123]
- remaining activity at 3200 µM: 88%

Compound: Cc1c(N)c(=O)n(-c2ccccc2)n1C [Compound 1254-0226]
- remaining activity at 2500 µM (tested concentration 2.5 mM): 95%

Compound: NS(=O)(=O)c1ccc2c(c1)OCCO2 [Compound 1313-0805]
- remaining activity at 2300 µM: 88%

Compound: NC1=NC(=O)CO1 [Compound 1318-0067]
- remaining activity at 5000 µM (residual activity of DdlB, fragment library screening, tested concentration 5.0 mM): 102%

Compound: Cc1ccc2ccc(S(=O)(=O)O)cc2c1 [Compound 1326-0466]
- remaining activity at 2200 µM: 101%

Compound: N#Cc1cccc2cccc(S(=O)(=O)O)c12 [Compound 1326-0564]
- remaining activity at 2200 µM: 96%

Compound: O=C(O)c1cc(S(=O)(=O)N2CCOCC2)ccc1O [Compound 1494-0564]
- remaining activity at 1700 µM (residual activity): 92%

Compound: O=C(O)c1ccccc1C(=O)NCc1cccnc1 [Compound 1514-0633]
- remaining activity at 2000 µM (fragment library screening): 93%

Compound: Cc1cccc(OCC(=O)NC(C)C(=O)O)c1 (stereo not drawn) [Compound 1683-0903]
- remaining activity at 2100 µM: 98%

Compound: COC(=O)CCC(=O)Nc1ccc(S(N)(=O)=O)cc1 [Compound 1699-0796]
- remaining activity at 1700 µM: 89%

Compound: Cc1ccc(O)c(CCc2ccc(O)cc2)n1 [Compound 1733-0143]
- remaining activity at 2100 µM: 90%

Compound: O=S(=O)(Nc1ccccc1Cl)c1ccc(F)cc1 [Compound 1763-0763]
- remaining activity at 1900 µM (residual activity, tested concentration 1.9 mM): 115%

Compound: CC(=O)NCCc1ccc(S(N)(=O)=O)cc1 [Compound 2332-0866]
- remaining activity at 2100 µM: 94%

Compound: Cc1ccc(S(=O)(=O)N2CCOCC2)c(C)c1 [Compound 2488-0460]
- remaining activity at 2200 µM: 90%

Compound: Cc1cc(N)n(-c2ccc(S(=O)(=O)O)cc2)n1 [Compound 2991-0739]
- remaining activity at 2000 µM: 97%

Compound: Oc1nnc(-c2ccccc2)c(-c2ccccc2)n1 [Compound 3039-0046]
- remaining activity at 2000 µM (residual activity): 104%

Compound: COc1ccc2[nH]c(S(=O)(=O)O)nc2c1 [Compound 3260-0314]
- remaining activity at 2200 µM: 91%

Compound: CCC([N+](=O)[O-])C1(O)C(=O)Nc2ccccc21 (stereo not drawn) [Compound 3817-0017]
- remaining activity at 2100 µM (residual activity): 95%

Compound: COC(=O)c1ccc(S(=O)(=O)O)o1 [Compound 4055-0046]
- remaining activity at 2400 µM: 102%

Compound: Cc1ccc2nc(C)c(CN3CCCCC3C)c(O)c2c1 (stereo not drawn) [Compound 4300-0248]
- remaining activity at 1800 µM (residual activity): 87%

Compound: O=S(=O)(O)c1ccc(O)c2ncccc12 [Compound 4311-2142]
- remaining activity at 2200 µM: 96%

Compound: O=C(COc1cccc(Br)c1)Nc1nnc[nH]1 [Compound 4491-0732]
- remaining activity at 1700 µM: 94%

Compound: Cc1cccc(C)c1NC(=O)C[C@H](NCCO)C(=O)O [Compound 4553-3784]
- remaining activity at 1800 µM (fragment library screening): 102%

Compound: CC(C)n1c(S(=O)(=O)O)nc2ccccc21 [Compound 4587-0081]
- remaining activity at 2100 µM: 83%

Compound: CC1(C)Cc2[nH]c(=O)c(C(=O)O)cc2CO1 [Compound 4965-0162]
- remaining activity at 2200 µM (residual activity): 93%

Compound: c1ccc2c(c1)N(CN1CCCC1)CC21OCCO1 [Compound 5482-0050]
- remaining activity at 2300 µM: 94%

Compound: CC1(C)Cc2nc(N)c(C(=O)O)cc2CO1 [Compound 5545-0125]
- remaining activity at 2300 µM (residual activity): 95%

Compound: CN1CCN(C2CC(=O)N(c3ccccc3)C2=O)CC1 (stereo not drawn) [Compound 5593-0294]
- remaining activity at 2000 µM (residual activity): 99%

Compound: Cc1ccc([C@@H](CC(=O)O)c2ccco2)cc1 [Compound 5664-0388]
- remaining activity at 2200 µM: 100%

Compound: CC(=O)CC1(O)C(=O)Nc2ccc(Br)cc21 (stereo not drawn) [Compound 5897-0084]
- remaining activity at 1800 µM (residual activity): 96%

Compound: O=S(=O)(O)CCN1CCN(CCO)CC1 [Compound 6105-1549]
- remaining activity at 2100 µM: 99%

Compound: CCOc1ccc([C@@H](CC(=O)O)NC(C)=O)cc1 [Compound 6705-0233]
- remaining activity at 2000 µM (fragment library screening): 87%

Compound: COc1ccc(OC)c(-c2oc3ccccc3c(=O)c2O)c1 [Compound 6877-0609]
- remaining activity at 1700 µM: 102%

Compound: Cc1ccc(CC2CC(=O)N(c3ccncc3)C2=O)cc1 (stereo not drawn) [Compound 6903-0015]
- remaining activity at 2000 µM (residual activity): 84%

Compound: O=C(Nc1ccccn1)NC1CCS(=O)(=O)C1 (stereo not drawn) [Compound 7098-0576]
- remaining activity at 2400 µM: 87%

Compound: Nc1ncnc2[nH]c(N3CCOCC3)nc12 [Compound 8001-0336]
- remaining activity at 2300 µM (residual activity): 98%

Compound: Nc1ccc(S(=O)(=O)O)cc1 [Compound 8001-1265]
- remaining activity at 2900 µM: 95%

Compound: O=C(Nc1nc[nH]n1)c1ccc(Cl)cc1 [Compound 8003-7117]
- remaining activity at 2200 µM (residual activity): 103%

Compound: O=C1CSC2N1CCNC21CCCCC1 (stereo not drawn) [Compound 8003-7360]
- remaining activity at 2200 µM: 90%

Compound: CCC(CC)NC1=NS(=O)(=O)c2ccccc21 [Compound 8003-7481]
- remaining activity at 2400 µM: 100%

Compound: NCCNC(=O)c1nonc1N [Compound 8006-0101]
- remaining activity at 3200 µM [1]: 93%

Compound: CC(=O)Nc1ccc2c(C)cc(C)nc2n1 [Compound 8006-1575]
- remaining activity at 2300 µM: 97%

Compound: Cc1ccc(C(=O)O)c(NC(=O)c2ccncc2)c1 [Compound 8006-9224]
- remaining activity at 2000 µM (residual activity): 97%

Compound: CCCOc1ccc(C(=O)NCC(=O)O)cc1 [Compound 8007-0359]
- remaining activity at 2100 µM: 86%

Compound: Cc1ccc(C2(O)CC(C)N(C)CC2C)cc1 (stereo not drawn) [Compound 8007-1141]
- remaining activity at 2600 µM (tested concentration 2.6 mM): 94%

Compound: O=C(O)Cn1nnc(-c2ccccc2Cl)n1 [Compound 8007-4998]
- remaining activity at 2100 µM: 93%

Compound: COC(=O)N1C2C=CC(C2)C1(C(F)(F)F)C(F)(F)F (stereo not drawn) [Compound 8007-6774]
- remaining activity at 2100 µM (residual activity): 89%

Compound: NS(=O)(=O)Cc1ccccc1Cl [Compound 8008-0774]
- remaining activity at 2400 µM: 89%

Compound: Cc1cc(C)c(S(N)(=O)=O)c(Cl)n1 [Compound 8008-1931]
- remaining activity at 2300 µM: 78%

Compound: CCN(CC)S(=O)(=O)c1ncn[nH]1 [Compound 8008-1932]
- remaining activity at 2400 µM: 93%

Compound: OB1OCc2ccccc21 [Compound 8008-5589]
- remaining activity at 3700 µM (tested concentration 3.7 mM): 85%

Compound: Cc1nc(C#N)c(N2CCOCC2)o1 [Compound 8008-9715]
- remaining activity at 3100 µM (tested concentration 3.1 mM): 93%

Compound: Cc1cccc(C(=O)O)c1NC(=O)c1ccc(F)cc1 [Compound 8009-0898]
- remaining activity at 1800 µM (residual activity): 99%

Compound: N#Cc1ccc(NC(=O)[C@H]2CC=CC[C@H]2C(=O)O)cc1 [Compound 8009-1194]
- remaining activity at 2000 µM (residual activity): 91%

Compound: O=S(=O)(O)c1ccc2cccc(O)c2n1 [Compound 8009-2146]
- remaining activity at 2200 µM: 96%

Compound: O=C(O)C#CC12CC3CC(CC(C3)C1)C2 [Compound 8009-2654]
- remaining activity at 2400 µM: 112%

Compound: CC1CN(c2ccccc2)NC1=O (stereo not drawn) [Compound 8009-3796]
- remaining activity at 3400 µM [1]: 97%

Compound: Cc1cc(F)c(F)c(C(=O)n2ccnc2)c1Cl [Compound 8009-4247]
- remaining activity at 2100 µM: 102%

Compound: Cc1nc2nc(S(N)(=O)=O)nn2c(C)c1C [Compound 8009-4322]
- remaining activity at 2100 µM: 97%

Compound: Cc1ccc(C#N)c(SCC(=O)O)n1 [Compound 8009-7785]
- remaining activity at 2400 µM: 82%

Compound: Oc1nsnc1N1CCOCC1 [Compound 8009-8691]
- remaining activity at 2700 µM (tested concentration 2.7 mM): 88%

Compound: CCc1c(C)nn2cnnc2c1O [Compound 8010-0007]
- remaining activity at 3400 µM [1]: 97%

Compound: Cc1ccc(Cl)cc1S(=O)(=O)N1CCOCC1 [Compound 8010-0539]
- remaining activity at 2000 µM (residual activity): 98%

Compound: O=[N+]([O-])c1cc(CN2CCCC2)c2cccnc2c1O [Compound 8010-2705]
- remaining activity at 1800 µM (residual activity): 57%

Compound: Nc1n[nH]c(CC(=O)O)n1 [Compound 8010-3882]
- remaining activity at 3500 µM (tested concentration 3.5 mM): 100%

Compound: CCCc1cc(C(=O)O)n(C)n1 [Compound 8010-6224]
- remaining activity at 3300 µM (residual activity of DdlB, fragment library screening, tested concentration 3.3 mM): 90%

Compound: Cc1ccc(C(=O)CC2(O)C(=O)Nc3ccccc32)c(C)c1 (stereo not drawn) [Compound 8010-6588]
- remaining activity at 1700 µM: 93%

Compound: O=C(O)c1ccccc1NC(=O)c1[nH]ncc1[N+](=O)[O-] [Compound 8010-7769]
- remaining activity at 1800 µM (residual activity): 99%
